Values of other authors as cited in patent publication EP3360549A1, “SMALL MOLECULE THERAPEUTICS FOR TREATING METACHROMATIC LEUKODYSTROPHY” (Rheinische Friedrich-Wilhelms-Universität Bonn, priority 2017, dated 2018).

Tested on: sulfatides
Details: mice, brain; reduction, along with cerebrosides and sphingomyelin

CC(=O)CC(c1ccccc1)c1c(O)c2ccccc2oc1=O (stereo not shown) [Warfarin]
reduce the levels of sulfatides: 33%
